Experimental data reported in ChEMBL document CHEMBL2095176, “GSK Tuberculosis Screening Data”.
Values after ≈ are worked out from the molar mass of the structure shown.

System: Mycobacterium tuberculosis variant bovis BCG
Test: microbe, parasite or virus in culture
Format: functional

CNC1=NC(=O)[C@H]([C@H](C)c2c[nH]c3ccccc23)O1 [INDOMYCIN] was tested, and the MIC90 was 5 µM (≈ 1.29 µg/mL).
With O=C(Nc1nc(-c2ccccn2)cs1)C1COc2ccccc2O1 (stereo unspecified) the MIC90 was 3.7 µM (≈ 1.26 µg/mL).
Molecule Cc1ccc2nc(C)c(C(=O)NCc3ccco3)n2c1 has an MIC90 of 1 µM (≈ 0.269 µg/mL).
COc1ccc(-c2cc(C(=O)NC3CCCCNC3=O)n3nc(C(C)(C)C)cc3n2)cc1 (stereo unspecified) gave an MIC90 of 3.7 µM (≈ 1.61 µg/mL).
Work on O=C(Nc1nc(-c2ccccn2)cs1)c1cc2c(s1)CCCC2 yielded an MIC90 of 5.5 µM (≈ 1.88 µg/mL).
In the case of COc1cc(CN2CCCC(c3cc(C(F)(F)F)n4nc(C)cc4n3)C2)ccc1O (stereo unspecified), the MIC90 is reported as 6 µM (≈ 2.52 µg/mL).
For COc1ccc(C(=O)Nc2nnc(-c3ccc4c(c3)CCCC4)o2)cc1, the MIC90 was 3 µM (≈ 1.05 µg/mL).
Cc1cnc(CNCc2ccc(-c3ccc(C(=O)NCCc4ccccc4)c(F)c3)cc2)cn1 gave an MIC90 of 5.5 µM (≈ 2.5 µg/mL).
CC(C)n1ncc2c(C(=O)NCC(c3cccs3)N3CCOCC3)cc(-c3ccccc3)nc21 (stereo unspecified) gave an MIC90 of 2.5 µM (≈ 1.19 µg/mL).
COc1ccc(CCNC(=O)c2cc(-c3ccc(OC)c(OC)c3)on2)cc1OC gave an MIC90 of 4.2 µM (≈ 1.73 µg/mL).
For CN(Cc1ccccc1)c1ncc(-c2ccc(CNCC3CCCO3)cc2)cn1 (stereo unspecified), the MIC90 was 8.7 µM (≈ 3.38 µg/mL).
In the case of O=C(Nc1nnc(-c2ccc3c(c2)CCCC3)o1)c1ccc(Cl)s1, the MIC90 is reported as 3.8 µM (≈ 1.37 µg/mL).
CNC(=O)c1cc(Nc2ncc(F)c(N(C)c3ccc4c(C)[nH]nc4c3)n2)cc(OCCCN)c1 gave an MIC90 of 7.9 µM (≈ 3.78 µg/mL).
Work on O=c1cc(N2CCCNCC2)c(Cl)nn1CCCNS(=O)(=O)c1ccc(-c2ccccc2)cc1 yielded an MIC90 of 4.6 µM (≈ 2.31 µg/mL).
For O=C(NNC(=O)N1CCN(C(c2ccccc2)c2ccc(Cl)cc2)CC1)c1ccc([N+](=O)[O-])o1 (stereo unspecified), the MIC90 was 1.1 µM (≈ 0.532 µg/mL).
Molecule Cc1ccc(Nc2cc(C)nn2-c2nc(C)cc(O)n2)cc1 has an MIC90 of 0.5 µM (≈ 0.148 µg/mL).
Molecule CSc1ccc(-c2nnc(NC(=O)c3cccc(F)c3)o2)cc1 has an MIC90 of 3.9 µM (≈ 1.28 µg/mL).
Work on CC(C)Oc1ccc(C(=O)Nc2nc(-c3ccccn3)cs2)cc1 yielded an MIC90 of 4.1 µM (≈ 1.39 µg/mL).
With CCCCOc1ccc(S(=O)(=O)NCCCn2nc(Cl)c(N3CCCNCC3)cc2=O)cc1 the MIC90 was 4.4 µM (≈ 2.19 µg/mL).
CCC1=NN(C(=O)c2ccncc2)C(O)(c2ccncc2)C1 (stereo unspecified) gave an MIC90 of 6.9 µM (≈ 2.04 µg/mL).
c1cc(COc2ccc(C3=NCCN3)cc2)nc(COc2ccc(C3=NCCN3)cc2)c1 was tested, and the MIC90 was 6.1 µM (≈ 2.61 µg/mL).
With Cn1ccnc1CNCCS(=O)(=O)c1cccc(Nc2ccc(-c3cccc(F)c3)cn2)c1 the MIC90 was 4.3 µM (≈ 2 µg/mL).
For COc1ccc(S(=O)(=O)Nc2ccccc2Nc2ccc(C)cc2)cc1, the MIC90 was 2.8 µM (≈ 1.03 µg/mL).
Work on COCc1nc(N2CCNCC2)c2c(C)nn(-c3cccc(Cl)c3)c2n1 yielded an MIC90 of 1.9 µM (≈ 0.708 µg/mL).
With COCc1nc(N2CCCNCC2)c2c(C)nn(-c3cccc(Cl)c3)c2n1 the MIC90 was 0.4 µM (≈ 0.155 µg/mL).
COc1ccc(-c2nc(NC(=O)C3CCCN3S(=O)(=O)c3cccs3)sc2C)cc1 (stereo unspecified) showed an MIC90 of 6.9 µM (≈ 3.2 µg/mL).
In the case of CSc1ccc(C(=O)Nc2nc(-c3ccccn3)cs2)cc1, the MIC90 is reported as 4.4 µM (≈ 1.44 µg/mL).
With Cc1nc2ccccn2c1C(=O)NCc1cccs1 the MIC90 was 3.9 µM (≈ 1.06 µg/mL).
In the case of O=C(Nc1ccc(C(F)(F)F)cc1)OCC1CCCN2CCCCC12 (stereo unspecified), the MIC90 is reported as 6.9 µM (≈ 2.46 µg/mL).
NC(=O)c1csc(-c2cccc(OCCNCCc3cccc(F)c3)c2)n1 was tested, and the MIC90 was 2 µM (≈ 0.771 µg/mL).
Cn1nc(C(=O)N2CCc3sccc3C2c2ccccc2)c2ccccc2c1=O (stereo unspecified) was tested, and the MIC90 was 2 µM (≈ 0.803 µg/mL).
COc1ccc(-c2ccc(Nc3cccc(S(=O)(=O)CCNCCn4nc(C)cc4C)c3)nc2)cn1 gave an MIC90 of 6.9 µM (≈ 3.5 µg/mL).
Work on Clc1cc(N2CCNCC2)cc(Cl)c1OCc1ccccc1 yielded an MIC90 of 2.2 µM (≈ 0.742 µg/mL).
With Cc1ccc(-n2cc3c(-c4ccc(Cl)cc4)nnc(C)c3n2)cc1 the MIC90 was 5.7 µM (≈ 1.91 µg/mL).
With CC1CNC(c2ccc(NC(=O)c3ccc(C(=O)Nc4ccc(C5=NC(C)CN5)cc4)cc3)cc2)=N1 (stereo unspecified) the MIC90 was 0.8 µM (≈ 0.384 µg/mL).
CNc1nc(SC)nc2ccsc12 was tested, and the MIC90 was 10 µM (≈ 2.11 µg/mL).
COc1cc(NC(=O)c2sc(-c3ccc(Cl)cc3)cc2/N=C2/CCCCN2C)ccc1OCCN1CCCC1 showed an MIC90 of 6 µM (≈ 3.4 µg/mL).
Work on O=C(Cc1c(Cl)cccc1Cl)Nc1nc(-c2ccccn2)cs1 yielded an MIC90 of 9.4 µM (≈ 3.42 µg/mL).
For O=C(O)C(F)(F)F.c1ccc2c(-c3ccc(CNCC4CCNC4)cc3)cncc2c1 (stereo unspecified), the MIC90 was 7.8 µM.
Molecule CCOc1cc(OC)c(C(=O)Nc2cccc3c2CCN(C)C3C)cc1Cl (stereo unspecified) has an MIC90 of 5.6 µM (≈ 2.18 µg/mL).
In the case of CCc1c(C)nc(-n2nc(C)cc2NC(=O)COc2ccccc2F)[nH]c1=O, the MIC90 is reported as 2.8 µM (≈ 1.08 µg/mL).
O=C(Nc1nc(-c2ccccn2)cs1)C1(c2ccc(Cl)cc2)CC1 gave an MIC90 of 3.3 µM (≈ 1.17 µg/mL).
Cc1ccc(-c2nnc(NC(=O)c3ccc(C#N)cc3)o2)cc1C showed an MIC90 of 3.7 µM (≈ 1.18 µg/mL).
Molecule COc1ccc(Nc2ccccc2N)cc1 has an MIC90 of 1.1 µM (≈ 0.236 µg/mL).
O=C(Nc1nnc(-c2ccc(Cl)cc2)o1)c1cc(F)cc(F)c1 was tested, and the MIC90 was 4.1 µM (≈ 1.38 µg/mL).
For O=C(NNC(=O)c1cc2cc([N+](=O)[O-])ccc2s1)c1cccs1, the MIC90 was 9.2 µM (≈ 3.2 µg/mL).
O=C(NC(=Cc1ccc(-c2cccc(C(F)(F)F)c2)o1)C(=O)N1CCOCC1)c1ccccc1 showed an MIC90 of 6.8 µM (≈ 3.2 µg/mL).
Molecule CCc1ccc(CN2CCC3(CC2)OCCc2sccc23)s1 has an MIC90 of 0.5 µM (≈ 0.167 µg/mL).
CN(C)CCN(Cc1ccc(-c2cccc(CN)c2)cc1)C(=O)CCC1CCCC1 was tested, and the MIC90 was 9.9 µM (≈ 4.04 µg/mL).
Work on CCc1nc2ccccc2n1CC(O)COc1cc(C)ccc1Cl (stereo unspecified) yielded an MIC90 of 9.7 µM (≈ 3.34 µg/mL).
CCn1c(=O)c(=O)[nH]c2cc(C(=O)Nc3ccccc3Nc3ccc(OC)cc3)ccc21 gave an MIC90 of 0.9 µM (≈ 0.387 µg/mL).
With Br.CCCc1cc(C(C)=O)ccc1OCCCON1C(=N)N=C(N)NC1(C)C the MIC90 was 8.8 µM.
O=C(Nc1nnc(-c2ccc(Cl)s2)o1)c1ccc(Cl)s1 was tested, and the MIC90 was 7.5 µM (≈ 2.6 µg/mL).
Work on c1ccc(CCNc2cc(-c3ccccc3)nc3nncn23)cc1 yielded an MIC90 of 8.1 µM (≈ 2.55 µg/mL).
With CCc1c(C)nc(-n2nc(C)cc2NC(=O)c2ccc(OC)cc2OC)[nH]c1=O the MIC90 was 1.2 µM (≈ 0.477 µg/mL).
With O=C(CSCc1ccc(Cl)cc1)NNC(=O)c1ccncc1 the MIC90 was 9.7 µM (≈ 3.26 µg/mL).
